Patent US5070210A, “Novel ketenimines as intermediates for insecticides” (ICI Americas Inc., priority 1990, dated 1991)

Tests used:
Type in all cases: in vivo
[1] = test system: Tobacco Budworm [Heliothis virescens (Fabricius)] eggs; assay: Tobacco budworm egg test; conditions: 2-day old eggs, percent in solution
Method in brief: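 Mortality of dipped eggs served as read-out, recorded after untreated controls hatched and began feeding. Treatments used acetone solutions from 0.1% downward, with eggs incubated at 78° F; LC50 is expressed as percent of compound in the solution.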

[2] = test system: Aster Leafhopper [Macrosteles fascifrens (Stal)]; assay: Aster leafhopper insecticidal test; conditions: adults/nymphs, percent in solution; 48 hours
Method: The compounds in Tables 1 and 2 above were tested for insecticidal activity using the following testing procedures. LC50 values, based on the results of these tests and calculated according to dosage-mortality curves, are expressed in Table 3.
Aster Leafhopper [Macrosteles fascifrens (Stal)]
Oat seedlings (Avena sp) were grown in a commercial potting soil in cups. When the plants were approximately 10 cm tall they were thinned to three plants per cup and dipped for 2-3 seconds in 50-50 acetone-water solutions of the test compounds. When the plants had dried, a clear plastic tube was placed over them and the bottom end pressed into the cup. Ten aster leafhopper adults/nymphs were then placed in each tube and the tops of the tubes covered with white organdy cloth. Mortality counts were made after 48 hours. Test concentrations ranged from 0.05% down to that at which 50% mortality occurred. The LC50 values are expressed below in Table 3 under the heading "LH" in terms of the percent of the test compound in the solution.

[3] = test system: Maize weevil [Sitophilus Zeamais (Motschulsky)]; assay: Maize weevil insecticidal test; conditions: adult weevils, percent in solution; 48 hours
Method in brief: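 LC50, in percent of compound in solution, was derived from dosage-mortality curves after 48 h at about 25 °C. Ten adult weevils per container fed on four corn seeds briefly immersed in acetone:water (50:50) solutions of up to 0.01% and dried.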

[4] = test system: Housefly [Musca domestica]; assay: Housefly insecticidal test; conditions: μg per 25 female flies; mortality after 48 hours
Method in brief: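 Acetone solutions (with 0.01% peanut oil) dried onto dish bottoms, then 25 female flies, 1-2 days old, caged over the residue with sugar water. Mortality scored at 48 hours; LC50 from dosage-mortality curves, in μg per 25 female flies, top level 100 μg.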

[5] = test system: Cabbage Looper [Trichoplusia ni (Hubner)]; assay: Cabbage looper insecticidal test; conditions: second-instar larvae, percent in solution; 3-5 days
Method in brief: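 Steps: dilute compound in 50-50 acetone-water from 0.1% downward; immerse cotyledon pieces 2-3 s and dry; place in humid petri dishes with five second-instar larvae; record mortality at 3-5 days. Dosage-mortality curves yield LC50 as percent in solution.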

Row | Compound | LC50, TBW, E (TBW-E) [1] [%] | LC50, LH [2] [%] | LC50, MW [3] [%] | LC50, HF [4] [µg] | LC50, CL [5] [%]
1 | CC(C)(C)C(=Nc1ccc(F)c(F)c1)OCc1coc(Cc2ccccc2)c1 [Compound 525] | > 0.1 | > 0.05 | > 0.01 | > 100 | < 0.1
2 | CC(C)C(=Nc1ccc(F)c(Cl)c1)OCc1cccc(Nc2ccc(F)cc2)c1 [Compound 512] | > 0.1 | > 0.05 | > 0.01 | 35 | 0.003
3 | C#CCc1c(F)c(F)c(COC(=Nc2cccc(C(F)(F)F)c2)C(C)C)c(F)c1F [Compound 546] | > 0.1 | < 0.05 | 0.0032 | < 100 | 0.0001
4 | CC(C)C(=Nc1cccc([N+](=O)[O-])c1)OCc1cccc(Oc2ccc(Cl)cc2)c1 [Compound 271] | 0.1 | > 0.05 | > 0.01 | 27 | 0.0004
5 | CC(C)C(=Nc1ccccc1Br)OCc1cccc(Oc2ccccc2)c1 [Compound 132] | > 0.1 | > 0.05 | > 0.01 | 65 | 0.025
6 | COc1cccc(N=C(OCc2cccc(Oc3ccccc3)c2)C(C)C)c1 [Compound 143] | < 0.1 | 0.006 | > 0.01 | 10 | 0.002
7 | CSc1cccc(N=C(OCc2ccc(F)c(Oc3ccccc3)c2)C(C)C)c1 [Compound 362] | > 0.1 | > 0.05 | > 0.01 | < 100 | > 0.1
8 | CC(C)C(=Nc1ccc(Cl)cc1)OCc1cccc(Oc2ccc(F)cc2)c1 [Compound 189] | 0.07 | 0.002 | > 0.01 | 17 | 0.00027
9 | CC(C)C(=Nc1ccc(F)cc1)OCc1cccc(Oc2ccc(Br)cc2)c1 [Compound 259] | 0.05 | > 0.05 | > 0.01 | 15 | 0.0003
10 | CC(C)C(=Nc1ccc(F)c(Cl)c1)OCc1ccc(OCc2ccccc2)cc1 [Compound 475] | > 0.1 | > 0.05 | > 0.01 | > 100 | 0.008
11 | CC(C)C(=Nc1cccc(Br)c1)OCc1cccc(Oc2ccccc2)c1 [Compound 128] | 0.037 | 0.003 | > 0.01 | 4.5 | 0.005
12 | CC(C)C(=Nc1ccc([N+](=O)[O-])cc1)OCc1coc(Cc2ccccc2)c1 [Compound 539] | > 0.1 | > 0.05 | > 0.01 | 22 | > 0.1
13 | CC(C)C(=Nc1cccc(C(F)(F)F)c1)OCc1ccnc(Oc2ccc(Cl)cc2)c1 [Compound 517] | 0.04 | > 0.05 | > 0.01 | 80 | 0.0008
14 | CC(C)C(=Nc1cccc(C(F)(F)F)c1)OCc1cccc(Nc2ccc(F)cc2)c1 [Compound 513] | > 0.1 | > 0.05 | > 0.01 | 81 | 0.007
15 | CCC(=Nc1ccc2c(c1)OCO2)OCc1cccc(Oc2ccccc2)c1 [Compound 178] | > 0.1 | > 0.05 | > 0.01 | 6 | 0.004
16 | CC(C)(F)C(=Nc1ccc(F)c(Cl)c1)OCc1cccc(Oc2ccc(F)cc2F)c1 [Compound 315] | > 0.1 | > 0.05 | > 0.01 | > 100 | 0.002
17 | CC(C)C(=Nc1ccccc1C(F)(F)F)OCc1cccc(Oc2ccccc2)c1 [Compound 72] | > 0.1 | > 0.05 | > 0.01 | > 100 | 0.08
18 | CSc1ccc(N=C(OCc2cccc(Oc3ccccc3)c2)C(C)C)cc1 [Compound 142] | 0.1 | > 0.05 | > 0.01 | 15 | 0.005
19 | Fc1ccc(N=C(OCc2cccc(Oc3ccccc3)c2)C(F)F)cc1 [Compound 50] | > 0.05 | > 0.05 | > 0.01 | 43 | 0.02
20 | CC(C)C(=Nc1cccc(C(F)(F)F)c1)OCc1cccc(Oc2ccc(Cl)cn2)c1 [Compound 518] | > 0.1 | > 0.05 | > 0.01 | > 100 | 0.00075
21 | CC(=Nc1ccc(F)c(F)c1)OCc1coc(Cc2ccccc2)c1 [Compound 526] | > 0.1 | > 0.05 | > 0.01 | 8.3 | > 0.1
22 | CC(C)C(=Nc1ccc2c(c1)OCCO2)OCc1cccc(Oc2ccccc2)c1 [Compound 179] | > 0.1 | 0.005 | > 0.01 | 13 | 0.004
23 | CC(C)C(=Nc1cccc(C(F)(F)F)c1)OCC#CCOc1ccccc1 [Compound 548] | > 0.1 | > 0.05 | > 0.01 | > 100 | < 0.1
24 | CC(C)C(=Nc1ccc(C(F)(F)F)cc1)OCc1cccc(Oc2ccc(Cl)cc2)c1 [Compound 365] | 0.038 | < 0.05 | > 0.01 | > 100 | 0.00025
25 | CC(C)C(=Nc1cccc(I)c1)OCc1cccc(Oc2ccc(F)cc2)c1 [Compound 255] | 0.075 | 0.0005 | > 0.01 | 16 | 0.00017
26 | CC(C)C(=Nc1ccc(C(C)(C)C)cc1)OCc1cccc(Oc2ccccc2)c1 [Compound 153] | 0.1 | 0.0005 | > 0.01 | > 100 | 0.004
27 | CC(C)C(=Nc1ccc(F)c([N+](=O)[O-])c1)OCc1cccc(Oc2ccccc2)c1 [Compound 293] | > 0.1 | > 0.05 | > 0.01 | 19 | 0.0045
28 | COCc1c(F)c(F)c(COC(=Nc2ccc(C(C)(C)C)cc2)C(C)C)c(F)c1F [Compound 544] | > 0.1 | > 0.05 | > 0.01 | > 100 | > 0.1
